Data reported in patent US9834530B2, “3-furyl-2-cyano-2-acrylamide derivative, preparation method therefor, pharmaceutical composition and use thereof” (JENKEM TECHNOLOGY CO., LTD. (BEIJING), priority 2013, dated 2017).

How the values were obtained:
[1] = system: AD fruit flies (elav/Y; UAS-Aβ42/+; P35*H29.3); experiment: Pavlovian olfactory learning test in AD fruit flies (anti-senile dementia effect); format: in vivo; conditions: for PI (mean value), learning and memory index: AD flies (P35*H29.3) given drug, final concentration 100 μM, 50 μl, day 2 to day 8, immediate memory tested day 9, PI=0 no memory, PI=100 all remember; for anti-senile dementia effect (in words, from Table 1): AD flies, T test against AD flies without administration: P>0.05, P<0.05 or P<0.01; for anti-senile dementia effect compared with JKF-006, JKF-027 and JKF-011: transgenic AD fruit flies, comparison with compounds of WO2012/103282
Description: In all tests, w^1118 (isoCJ1) was used as a control gene system, referred to as the “2U”. Progeny fruit flies with disease carrying P35 and H29.3 were obtained by integration of fruit flies carrying elav-GAL4^c155 (referred to as P35) and fruit flies carrying Aβ42 (UAS-Aβ42; referred to as H29.3). The first generation of fruit flies obtained by hybridization was used for behavioral testing. Details as follows:
All the fruit flies were reared in an environment with a temperature of 24° C., relative humidity of 40% RH. On the first day, newborn male 2U*H29.3 fruit flies and male AD fruit flies were picked out and put into glass bottles (there were about 120 fruit flies in each bottle). During administration period, these fruit flies were placed in an environment with a temperature of 28° C., relative humidity of 42% RH. From the second day to the eighth day, the fruit flies were transferred into new glass bottles 4 hours later after administration. All the fruit flies were placed in an environment with a temperature of 28° C., relative humidity of 42% RH until 1 hour before Pavlovian olfactory learning test.
On the first day of eclosion dispensation of drugs was conducted, the second day administration was carried out. The respective initial amount of compounds JK-01A, JK-03A, JK-05A, JK-06A and JK-07A was 10 mg, and the final concentration was 100 μM. Each group had two glass bottles of flies which were administered 50 μl within seven days (from the second day to the eighth day). During administration period, since some fruit flies died naturally or for other causes, about 100 flies were remained in each bottle when Pavlovian olfactory test was conducted on the ninth day.
The fruit flies were placed on the automatic training device for training. In training, a group of about 100 flies first contacted with one kind of odor (octanol or methyl cyclohexanol) accompanied by electric shocks (an electric shock of 60 V for 3.5 s at 1.5-s intervals) for 60 s, rested at 45-s intervals, and then contacted with another kind of odor (methyl cyclohexanol or octanol) without electric shocks for 60 s. To test the “immediate memory” (also called “learning”), flies after the training were immediately sent to the T-maze choice point, and allowed to choose between two kinds of odor, the learning and memory index PI (Performance index) in every test was calculated according to the number of flies choosing each kind of odor. PI=0 represented 50:50, meaning that fruit flies could not remember the odor accompanied by electric shocks, PI=100 represented that 100% of the flies remembered the odor accompanied by electric shocks. Learning test was carried out in a darkroom with a temperature of 25° C., relative humidity of 70% RH. The fruit flies entered the darkroom to be familiar with the environment 1 hour before test.
The test data was analyzed and plotted by employing GraphPad Prism.
In the activity test, the olfactory short-term memory impairment tests of healthy flies with the same genetic background and without administration, AD flies without administration, AD flies administrated positive or negative control drugs and AD flies administrated test drugs were carried out at the same time, their learning and memory indexes were calculated, and the learning and memory index of AD flies administrated test drugs was compared with those of healthy flies with the same genetic background, AD flies, AD flies administrated positive or negative control drugs to evaluate the anti-senile dementia effect of test compounds. A relatively higher learning and memory index of AD flies administrated test drugs represented a stronger anti-senile dementia effect of test compounds. […]

ICR mice = experiment: Preliminary acute toxicity test; format: in vivo; conditions: given twice 3 hours apart, 14 days observation
Description: Method: in the acute toxicity test, ICR mice were used and divided into six groups for administration, with 10 mice in each group and half male and half female. […] The control group was administrated the same volume of vehicle. Observation was conducted for 14 consecutive days after administration.

| Structure (SMILES) | PI (mean value), learning and memory index [1] | anti-senile dementia effect (in words, from Table 1) [1] | Test result (acute toxicity) (ICR mice; 4000 mg/kg/d p.o.) | anti-senile dementia effect compared with JKF-006, JKF-027 and JKF-011 [1] | Test result (acute toxicity) (ICR mice; 6000 mg/kg/d p.o.) | Test result (acute toxicity) (ICR mice; 5000 mg/kg/d p.o.) |
| --- | --- | --- | --- | --- | --- | --- |
| CC(/C=C/C=C(\C)C(=O)O)=C\C=C\C=C(C)\C=C\C=C(/C)C(=O)O [Crocetin, reference compound] | 40 | equivalent anti-senile dementia effects |  |  |  |  |
| Cc1nc(Nc2ncc(C(=O)Nc3c(C)cccc3Cl)s2)cc(N2CCN(CCO)CC2)n1 [Dasatinib, reference compound] | 56 |  |  |  |  |  |
| C#Cc1cccc(Nc2ncnc3cc(OCCOC)c(OCCOC)cc23)c1 [Erlotinib, reference compound] | 48 | had anti-senile dementia effects |  |  |  |  |
| N#C/C(=C/c1ccc(CO)o1)C(=O)Nc1ccc(F)cc1 [JK-01A, 2-cyano-N-(4-fluorophenyl)-3-(5-hydroxymethyl-2-furyl)-2-acrylamide] | 65 | significant anti-senile dementia effects | No death, | more significant anti-senile dementia effects |  |  |
| N#C/C(=C\c1ccc(CO)o1)C(=O)NCCc1c[nH]c2ccccc12 [JK-03A, 2-cyano-N-[2-(1H-indol-3-yl)ethyl]-3-(5-hydroxymethyl-2-furyl)-2-acrylamide] | 56 | significant anti-senile dementia effects |  | more significant anti-senile dementia effects | No death, |  |
| N#C/C(=C\c1ccc(NCCOCCO)o1)C(=O)NCCc1c[nH]c2ccccc12 [JK-05A, 2-cyano-N-[2-(1H-3-indolyl)ethyl]-3-{5-[2-(2-hydroxyethoxy)ethylamino]-2-furyl}-2-acrylamide] | 40 | equivalent anti-senile dementia effects |  |  |  | No death, |
| COCCOCCOCc1ccc(/C=C(\C#N)C(=O)Nc2ccc(F)cc2)o1 [JK-06A, 2-cyano-N-(4-fluorophenyl)-3-[5-(2,5,8-trioxa-nonyl-1-yl)furan-2-yl]-2-acrylamide] | 67 | significant anti-senile dementia effects |  | more significant anti-senile dementia effects | No death, |  |
| N#CC(=Cc1ccc(COCCOCCOCCO)o1)C(=O)NCCc1c[nH]c2ccccc12 [JK-07A, 2-cyano-N-[2-(1H-3-indolyl)ethyl]-3-[5-(1,4,7,10-tetraoxa-undecane-11-yl)furan-2-yl]-2-acrylamide] | 58 | significant anti-senile dementia effects | No death, | more significant anti-senile dementia effects |  |  |
| N#C/C(=C\c1ccc(-c2cc(C(=O)O)ccc2Cl)o1)C(=O)Nc1ccc(F)cc1 [JKF-006, reference compound] | 37 | equivalent anti-senile dementia effects |  |  |  |  |
| N#C/C(=C\c1ccc(N2CCOCC2)o1)C(=O)NCCc1c[nH]c2ccccc12 [JKF-027, reference compound] | 54 | had anti-senile dementia effects |  |  |  |  |
